Results on one molecule are retold here after patent US4775684A, “1,3-dioxane ethers” (Imperial Chemical Industries PLC, priority 1985, dated 1988).

In one test the target is T1, rat aortal strip (Rattus norvegicus, UniProt P34978).
T1 construct: rat aortal strip model; from tissue; host or cells: rat aorta strip
T1 sequence (P34978 1-341): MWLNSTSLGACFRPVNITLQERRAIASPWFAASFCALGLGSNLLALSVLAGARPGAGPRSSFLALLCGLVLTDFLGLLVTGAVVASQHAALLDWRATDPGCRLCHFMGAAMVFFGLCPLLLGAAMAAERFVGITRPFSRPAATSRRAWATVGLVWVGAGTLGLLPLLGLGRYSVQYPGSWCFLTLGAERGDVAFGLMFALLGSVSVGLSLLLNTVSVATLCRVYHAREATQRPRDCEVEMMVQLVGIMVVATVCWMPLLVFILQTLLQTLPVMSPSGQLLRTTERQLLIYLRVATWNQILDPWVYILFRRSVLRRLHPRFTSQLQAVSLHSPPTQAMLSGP
Description: rat aortal strip model (procedure (a)), agonist U46619. To be noted: read-out: pA2 (converted). The format is cell-based. An excerpt:
As stated earlier, the compounds of formula I are antagonists of one or more of the actions of TXA2, for example certain of its actions on blood platelets, the vasculature and/or the lung.
(a) The rabbit aortal strip model devised by Piper and Vane (Nature, 1969, 223, 29-35) or the rat aortal strip model developed by Kennedy et alia (Prostaglandins, 1982, 24, 667-689), using as agonist the TXA2 mimtic agent known as U46619 (described by R. L. Jones et alia, in "Chemistry, Biochemistry and Pharmacological Activity of Prostanoids" edited by S. M. Roberts and F. Scheinmann, at page 211, Pergamon Press, 1979);

Test [1] deals with T2, U46619 stimulated platelet aggregation (Homo sapiens, UniProt P21731).
T2 construct: human, citrated platelet-rich plasma; endogenous in cells; host or cells: human platelets in citrated platelet-rich plasma
T2 sequence (P21731 1-343): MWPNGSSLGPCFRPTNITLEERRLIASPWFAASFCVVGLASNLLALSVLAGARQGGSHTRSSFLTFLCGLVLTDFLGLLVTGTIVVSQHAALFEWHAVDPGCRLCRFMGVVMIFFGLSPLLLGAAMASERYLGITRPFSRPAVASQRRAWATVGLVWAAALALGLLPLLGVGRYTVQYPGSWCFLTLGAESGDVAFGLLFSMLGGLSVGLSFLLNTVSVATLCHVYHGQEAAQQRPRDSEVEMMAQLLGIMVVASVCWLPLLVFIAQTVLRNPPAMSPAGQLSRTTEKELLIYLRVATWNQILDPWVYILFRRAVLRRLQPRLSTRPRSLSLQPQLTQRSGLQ
Description: blood platelet aggregation test (procedure (b)), U46619 stimulated aggregation of human citrated platelet-rich plasma. The format is cell-based. As to conditions: U46619, averaged over several concentrations. An excerpt:
(b) a blood platelet aggregation test based on that described by Born (Nature, 1962, 194, 927-929) and involving:
(i) aggregating human, citrated platelet-rich plasma by addition of the TXA2 mimetic agent U46619 so that a dose-response curve is generated;
(ii) generating a dose-response curve for U46619 stimulated platelet aggregation in the presence of increasing amounts of test compound (generally in the range, 10^-5 M to 10^-10 M); and
(iii) calculating a KB value indicating potency of TXA2 antagonism for the test compound, averaged over several concentrations, from the calculated 50% response value for U46619 aggregation in the presence and absence of test compound; and […]

In the case of `CC(C)(Oc1ccccc1)[C@@H]1OC[C@H](C/C=C\CCC(=O)O)[C@H](c2ccccc2O)O1` (relative stereo) [Example 6, 4(Z)-6-([2,4,5-cis]-2-[1-methyl-1-phenoxyethyl]-4-o-hydroxyphenyl-1,3-dioxan-5-yl)hexenoic acid], the Kb on rat aortal strip is 0.195 nM; in test [1], 17.5 nM.
